For one compound, IC50 results are on record in patent US20140066431A1, “Benzoxazepines as Inhibitors of PI3K/mTOR and Methods of Their Use and Manufacture” (Exelixis, Inc., priority 2010, published 2014).

The subject of assay [1] is MCF-7 cells (PI3Kα-E545K mutant). Kind of assay: pAKT (T308) ELISA assay, MCF-7. The class given is cell-based. Conditions: Homo sapiens, MCF7. The protocol:
MCF-7 cells (ATCC) cells were seeded at 24000 cells per well in 96-well plates (Corning, 3904) in DMEM (Cellgro) containing 10% FBS (Cellgro), 1% NEAA (Cellgro) and 1% penicillin-streptomycin (Cellgro). Cells were incubated at 37° C., 5% CO2 for 48 h, and the growth medium was replaced with serum-free DMEM or in medium containing 0.4% BSA. Serial dilutions of the test compound in 0.3% DMSO (vehicle) were added to the cells and incubated for 3 h. At the end of the incubation period, cells were stimulated for 10 minutes by the addition of L-IGF (Sigma, I-1271) at a final concentration of 100 ng/ml. Afterwards, media was discarded from cell plates and 110 μl/well of cold lysis buffer (see table below) were added. Cell plates were incubated on ice and then put on shaker in 4° C. cold room for 1 h. Two capture plates (Thermo Scientific, Reacti-bind plate, 15042) were prepared for each cell plate by pre-coating with capture Akt antibody from the two sandwich ELISA antibody pairs used (Cell Signaling Technology 7142 and 7144). The Akt capture antibodies were diluted 1:100 in PBS and […] of diluted capture antibody was added per well. […] After 1 minute incubation, chemiluminescence was read on a Wallac Victor2 1420 multilabel counter. IC50 values were determined based on the ratio of pAkt(T308) to total Akt1 signal for compound treated wells, normalized to the DMSO-treated control wells. […]
For orientation: In an ELISA, binding on a coated surface is turned into a signal by an enzyme label.

Assay [2] addresses mTOR/GbL/Raptor (mTORC1) (Homo sapiens, UniProt P42345). Kind of assay: mTOR/GbL/Raptor (mTORC1) ELISA assay. The format is biochemical. How it is done: The measurement of mTORC1 enzyme activity was performed in an ELISA assay format following the phosphorylation of 4E-BP1 protein. All experiments were performed in the 384-well format. Generally, 0.5 μL DMSO containing varying concentrations of the test compound was mixed with 15 μL enzyme solution. Kinase reactions were initiated with the addition of 15 μL of substrates-containing solution. The assay conditions were as follows; 0.2 nM mTORC1, 10 μM ATP and 50 nM NHis-tagged 4E-BP1 in 20 mM Hepes, pH 7.2, 1 mM DTT, 50 mM NaCl, 10 mM MnCl2, 0.02 mg/mL BSA, 0.01% CHAPS, 50 mM β-glycerophosphate. Following an incubation of 120 minutes at ambient temperature, 20 μL of the reaction volume was transferred to a Ni-Chelate-coated 384-well plate. The binding step of the 4E-BP1 protein proceeded for 60 minutes, followed by washing 4 times each with 50 μL of Tris-buffered saline solution (TBS). Anti-phospho-4E-BP1 rabbit-IgG (20 μL, 1:5000) in 5% BSA-TBST (0.2% Tween-20 in TBS) was added and further incubated for 60 minutes. Incubation with a secondary HRP-tagged anti-IgG was similarly performed after washing off the primary antibody (4 washes of 50 μL). Following the final wash step with TBST, 20 μL of SuperSignal ELISA Femto (Pierce Biotechnology) was added and the luminescence measured using an EnVision plate reader.

Structures are written as SMILES. Read-outs that look alike come from different tables or passages of the source.

Consider `Cc1cc(C(C)Nc2ccccc2)c2nc(N3CCOCC3)cc(=O)n2c1` (stereo not shown) [TGX-221, 7-methyl-2-(4-morpholinyl)-9-[1-(phenylamino)ethyl]-4H-pyrido[1,2-a]pyrimidin-4-one], for which the IC50 (in general, the concentration needed to halve the response being measured) in assay [1] (IGF1 stimulation, Table 5, read-out: pAKT (T308) IC50 MCF-7 PI3Kα E545K IGF1) is 1.76 µM; in assay [1] (PI3KαE545K, Table 6, read-out: Cellular pAKT (T308) IC50 MCF-7), > 30 µM; in assay [2] (4EBP1 as substrate for mTOR/GbL/raptor kinase, read-out: biochemical IC50 mTOR), 10.9 µM; in assay [2] (Table 5, read-out: Biochemical IC50 mTOR), 10.9 µM.
